Measured values as given in PubChem BioAssay AID248 (DTP/NCI, 2004).
Several values for one entry are separate records, joined by “and”; a condition that tells them apart may be missing. Equal entries are not always repeated. Toxic doses and inconclusive results are not listed.

System: L1210 leukemia ip in BDF1 mice, survival T/C
Test: NCI In Vivo Anticancer Drug Screen. Data for tumor model L1210 Leukemia (intraperitoneal) in B6D2F1 (BDF1) mice
Conditions: higher = longer survival
Method in brief: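 Transplanted-tumor mice were given test agent; controls received vehicle only. Survival readings from the two groups were divided (treated over control).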

Q: Which T/C (endpoint: mean survival time, dose: 4.69 mg/kg/injection, schedule: Q01DX009 (ip), vehicle: water) does the source give for OCC1OC(n2cnc3c(=S)nc[nH]c32)C(O)C1O (stereo not drawn) here?
A: The T/C was 103 % of control.

Q: What about the T/C (endpoint: mean survival time, dose: 9.38 mg/kg/injection, schedule: Q01DX009 (ip), vehicle: water) of the same compound?
A: The T/C was 109 % of control.

Q: And the T/C (endpoint: mean survival time, dose: 10.0 mg/kg/injection, schedule: Q01DX009 (ip), vehicle: saline)?
A: The T/C was 117 % of control and 120 % of control.

Q: And the T/C (endpoint: mean survival time, dose: 14.02 mg/kg/injection, schedule: Q01DX Z (ip), vehicle: carboxymethylcellulose (CMC))?
A: The T/C was 121 % of control.

Q: And the T/C (endpoint: mean survival time, dose: 17.88 mg/kg/injection, schedule: Q01DX Z (ip), vehicle: carboxymethylcellulose (CMC))?
A: Its T/C is 119 % of control.

Q: And the T/C (endpoint: mean survival time, dose: 18.25 mg/kg/injection, schedule: Q01DX Z (ip), vehicle: carboxymethylcellulose (CMC))?
A: Its T/C is 122 % of control.

Q: What about the T/C (endpoint: mean survival time, dose: 18.75 mg/kg/injection, schedule: Q01DX009 (ip), vehicle: water) of the same compound?
A: The T/C was 117 % of control.

Q: What about the T/C (endpoint: mean survival time, dose: 20.0 mg/kg/injection, schedule: Q01DX010 (ip), vehicle: saline) of the same compound?
A: The T/C was 111 % of control.

Q: What about the T/C (endpoint: mean survival time, dose: 23.83 mg/kg/injection, schedule: Q01DX Z (ip), vehicle: carboxymethylcellulose (CMC)) of the same compound?
A: The T/C was 115 % of control.

Q: And the T/C (endpoint: mean survival time, dose: 35.75 mg/kg/injection, schedule: Q01DX Z (ip), vehicle: carboxymethylcellulose (CMC))?
A: Its T/C is 123 % of control.

Q: What about the T/C (endpoint: mean survival time, dose: 36.5 mg/kg/injection, schedule: Q01DX Z (ip), vehicle: carboxymethylcellulose (CMC)) of the same compound?
A: Its T/C is 123 % of control.

Q: And the T/C (endpoint: mean survival time, dose: 37.5 mg/kg/injection, schedule: Q01DX009 (ip), vehicle: water)?
A: The T/C was 112 % of control.

Q: What about the T/C (endpoint: mean survival time, dose: 37.5 mg/kg/injection, schedule: Q01DX Z (ip), vehicle: carboxymethylcellulose (CMC)) of the same compound?
A: The T/C was 100 % of control.

Q: What about the T/C (endpoint: mean survival time, dose: 50.0 mg/kg/injection, schedule: Q01DX009 (ip), vehicle: saline) of the same compound?
A: The T/C was 121 % of control.

Q: And the T/C (endpoint: mean survival time, dose: 75.0 mg/kg/injection, schedule: Q01DX015 (ip), vehicle: carboxymethylcellulose (CMC))?
A: The T/C was 151 % of control.

Q: What about the T/C (endpoint: mean survival time, dose: 75.0 mg/kg/injection, schedule: Q01DX Z (ip), vehicle: carboxymethylcellulose (CMC)) of the same compound?
A: The T/C was 113 % of control.

Q: And the T/C (endpoint: mean survival time, dose: 100.0 mg/kg/injection, schedule: Q01DX005 (ip), vehicle: saline)?
A: Its T/C is 123 % of control.

Q: What about the T/C (endpoint: mean survival time, dose: 100.0 mg/kg/injection, schedule: Q01DX009 (ip), vehicle: carboxymethylcellulose (CMC)) of the same compound?
A: Its T/C is 114 % of control.

Q: What about the T/C (endpoint: mean survival time, dose: 107.25 mg/kg/injection, schedule: Q01DX Z (ip), vehicle: carboxymethylcellulose (CMC)) of the same compound?
A: The T/C was 152 % of control.

Q: And the T/C (endpoint: mean survival time, dose: 120.0 mg/kg/injection, schedule: Q01DX001 (ip), vehicle: carboxymethylcellulose (CMC))?
A: The T/C was 98 % of control.

Q: And the T/C (endpoint: mean survival time, dose: 125.0 mg/kg/injection, schedule: Q03HX024 (ip), vehicle: saline)?
A: The T/C was 114 % of control.

Q: What about the T/C (endpoint: mean survival time, dose: 150.0 mg/kg/injection, schedule: Q## X Z (ip), vehicle: carboxymethylcellulose (CMC)) of the same compound?
A: Its T/C is 107 % of control.

Q: And the T/C (endpoint: mean survival time, dose: 160.0 mg/kg/injection, schedule: Q01DX010 (ip), vehicle: saline)?
A: The T/C was 153 % of control and 155 % of control.

Q: And the T/C (endpoint: mean survival time, dose: 180.0 mg/kg/injection, schedule: Q01DX001 (ip), vehicle: alkali diluted with saline)?
A: Its T/C is 108 % of control.

Q: What about the T/C (endpoint: mean survival time, dose: 180.0 mg/kg/injection, schedule: Q01DX001 (ip), vehicle: carboxymethylcellulose (CMC)) of the same compound?
A: The T/C was 118 % of control.

Q: What about the T/C (endpoint: mean survival time, dose: 188.0 mg/kg/injection, schedule: Q03HX024 (ip), vehicle: clinical formulation) of the same compound?
A: The T/C was 104 % of control.

Q: And the T/C (endpoint: mean survival time, dose: 188.0 mg/kg/injection, schedule: Q03HX024 (ip), vehicle: saline)?
A: Its T/C is 115 % of control.

Q: And the T/C (endpoint: mean survival time, dose: 200.0 mg/kg/injection, schedule: Q01DX009 (ip), vehicle: saline)?
A: Its T/C is 163 % of control and 181 % of control.

Q: And the T/C (endpoint: mean survival time, dose: 270.0 mg/kg/injection, schedule: Q01DX001 (ip), vehicle: alkali diluted with saline)?
A: The T/C was 119 % of control.

Q: What about the T/C (endpoint: mean survival time, dose: 270.0 mg/kg/injection, schedule: Q01DX001 (ip), vehicle: carboxymethylcellulose (CMC)) of the same compound?
A: The T/C was 114 % of control.

Q: And the T/C (endpoint: mean survival time, dose: 300.0 mg/kg/injection, schedule: Q03HX024 (ip), vehicle: saline)?
A: Its T/C is 95 % of control and 108 % of control.

Q: And the T/C (endpoint: mean survival time, dose: 320.0 mg/kg/injection, schedule: Q01DX009 (ip), vehicle: saline)?
A: Its T/C is 152 % of control and 166 % of control.

Q: And the T/C (endpoint: mean survival time, dose: 600.0 mg/kg/injection, schedule: Q01DX001 (ip), vehicle: alkali diluted with saline)?
A: Its T/C is 120 % of control.

Q: And the T/C (endpoint: mean survival time, dose: 600.0 mg/kg/injection, schedule: Q## X Z (ip), vehicle: carboxymethylcellulose (CMC))?
A: Its T/C is 93 % of control.

Q: What about the T/C (endpoint: mean survival time, dose: 800.0 mg/kg/injection, schedule: Q01DX001 (ip), vehicle: saline) of the same compound?
A: The T/C was 103 % of control.

Q: And the T/C (endpoint: mean survival time, dose: 800.0 mg/kg/injection, schedule: Q01DX009 (ip), vehicle: carboxymethylcellulose (CMC))?
A: Its T/C is 122 % of control.

Q: And the T/C (endpoint: mean survival time, dose: 1000.0 mg/kg/injection, schedule: Q## X Z (ip), vehicle: carboxymethylcellulose (CMC))?
A: The T/C was 121 % of control.

Q: What about the T/C (endpoint: mean survival time, dose: 1200.0 mg/kg/injection, schedule: Q01DX001 (ip), vehicle: saline) of the same compound?
A: Its T/C is 107 % of control.

Q: What about the T/C (endpoint: mean survival time, dose: 1600.0 mg/kg/injection, schedule: Q01DX001 (ip), vehicle: saline) of the same compound?
A: Its T/C is 114 % of control.

Q: What about the T/C (endpoint: median survival time, dose: 50.0 mg/kg/injection, schedule: Q03HX024 (ip), vehicle: other) of the same compound?
A: Its T/C is 155 % of control.

Q: And the T/C (endpoint: median survival time, dose: 100.0 mg/kg/injection, schedule: Q03HX024 (ip), vehicle: other)?
A: The T/C was 155 % of control.

Q: And the T/C (endpoint: median survival time, dose: 100.0 mg/kg/injection, schedule: Q03HX024 (sc), vehicle: other)?
A: Its T/C is 150 % of control.

Q: And the T/C (endpoint: median survival time, dose: 200.0 mg/kg/injection, schedule: Q03HX024 (ip), vehicle: other)?
A: The T/C was 155 % of control.

Q: And the T/C (endpoint: median survival time, dose: 200.0 mg/kg/injection, schedule: Q03HX024 (sc), vehicle: other)?
A: Its T/C is 155 % of control.

Q: What about the T/C (endpoint: median survival time, dose: 400.0 mg/kg/injection, schedule: Q03HX024 (ip), vehicle: other) of the same compound?
A: The T/C was 111 % of control.

Q: What about the T/C (endpoint: median survival time, dose: 800.0 mg/kg/injection, schedule: Q01DX001 (ip), vehicle: other) of the same compound?
A: Its T/C is 111 % of control.

Q: And the T/C (endpoint: median survival time, dose: 800.0 mg/kg/injection, schedule: Q01DX001 (sc), vehicle: other)?
A: Its T/C is 111 % of control.

Q: And the T/C (endpoint: median survival time, dose: 800.0 mg/kg/injection, schedule: Q04DX003 (ip), vehicle: other)?
A: The T/C was 122 % of control.

Q: What about the T/C (endpoint: median survival time, dose: 800.0 mg/kg/injection, schedule: Q04DX003 (sc), vehicle: other) of the same compound?
A: Its T/C is 122 % of control.

Q: What about the T/C (endpoint: median survival time, dose: 1600.0 mg/kg/injection, schedule: Q01DX001 (ip), vehicle: other) of the same compound?
A: The T/C was 116 % of control.

Q: And the T/C (endpoint: median survival time, dose: 1600.0 mg/kg/injection, schedule: Q01DX001 (sc), vehicle: other)?
A: The T/C was 116 % of control.

Q: What about the T/C (endpoint: median survival time, dose: 3200.0 mg/kg/injection, schedule: Q01DX009 (sc), vehicle: other) of the same compound?
A: The T/C was 100 % of control.

Q: What about the T/C (endpoint: median survival time, dose: 3200.0 mg/kg/injection, schedule: Q04DX003 (sc), vehicle: other) of the same compound?
A: Its T/C is 150 % of control.
